Measured values reported in patent US12636316B2, “Pharmaceutical composition for preventing or treating myositis, comprising isolated mitochondria as active ingredient” (PAEAN BIOTECHNOLOGY INC., priority 2019, dated 2026).

Experiment: Membrane potential of mitochondria (JC-1 dye)
Format: biochemical
Conditions: 5 μg mitochondria mixed in 50 μL CCCP, room temperature 10 minutes, JC-1 2 μM
Method: In order to measure the membrane potential of the mitochondria isolated in Preparation Example 1, the mitochondrial protein concentration of the isolated mitochondria was quantified through the BCA to prepare 5 μg of mitochondria. The membrane potential of the mitochondria was measured using a JC-1 (molecular probes, cat no.1743159) dye.
Specifically, as an experimental group, 5 μg of the prepared mitochondria was mixed in 50 μL of PBS and then dispensed in a 96-well plate. In addition, as a control group, 50 μL of PBS without mitochondria was dispensed in a 96-well plate. In addition, as an additional experimental group, 5 μg of mitochondria was mixed in 50 μL of CCCP (R&D systems, CAS 555-60-2), then reacted at room temperature for 10 minutes, and then dispensed in a 96-well plate. In this case, CCCP is an ion transporter of mitochondria and depolarizes the membrane potential of mitochondria, thereby inhibiting the function of mitochondria.
Thereafter, each well was treated and reacted with the JC-1 dye so that the concentration was 2 μM, and then the absorbance was measured using a fluorescence microplate reader. […] The membrane potential of mitochondria was analyzed by calculating the ratio of […].

N#CC(C#N)=NNc1cccc(Cl)c1 [CCCP]
membrane potential activity: low membrane potential activity
